Columns and labels:
His-PKC-theta = molecular target: T1, His-PKC-theta (Homo sapiens, UniProt Q04759); assay: PKC-theta Assay (384-well time resolved fluorescence, IMAP TR-FRET); assay type: biochemical; conditions: read-out: Act. Level (IC50 in the PKC-theta Assay)
T1 construct: His; purchased Invitrogen
Outline: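 Fam-labeled S6-derived peptide (200 nM) and 10 μM ATP were reacted with 142 pM enzyme for 2 h at room temperature in HEPES pH 7.6 buffer with MgCl2, DTT, Triton X-100, BSA and EDTA. The reaction was stopped with IMAP progressive binding reagent plus Tb donor, incubated overnight, then TR-FRET read.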

PKC delta = molecular target: T2, PKC delta (Homo sapiens, UniProt Q05655); assay: PKC delta Assay (384-well time resolved fluorescence, IMAP TR-FRET); assay type: biochemical; conditions: selectivity for PKC-theta over PKC-delta
T2 construct: purchased Invitrogen
Outline: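 1.5 nM enzyme with 200 nM Fam-labeled S6-derived peptide and 10 μM ATP in 50 mM HEPES pH 7.6, 10 mM MgCl2, 1 mM DTT, 0.01% Triton X-100, 0.01% BSA, 0.1 mM EDTA; 2 hours at room temperature. Stopped with IMAP binding reagent and Tb donor, incubated overnight, read by TR-FRET.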

T2 sequence (Q05655 whole entry): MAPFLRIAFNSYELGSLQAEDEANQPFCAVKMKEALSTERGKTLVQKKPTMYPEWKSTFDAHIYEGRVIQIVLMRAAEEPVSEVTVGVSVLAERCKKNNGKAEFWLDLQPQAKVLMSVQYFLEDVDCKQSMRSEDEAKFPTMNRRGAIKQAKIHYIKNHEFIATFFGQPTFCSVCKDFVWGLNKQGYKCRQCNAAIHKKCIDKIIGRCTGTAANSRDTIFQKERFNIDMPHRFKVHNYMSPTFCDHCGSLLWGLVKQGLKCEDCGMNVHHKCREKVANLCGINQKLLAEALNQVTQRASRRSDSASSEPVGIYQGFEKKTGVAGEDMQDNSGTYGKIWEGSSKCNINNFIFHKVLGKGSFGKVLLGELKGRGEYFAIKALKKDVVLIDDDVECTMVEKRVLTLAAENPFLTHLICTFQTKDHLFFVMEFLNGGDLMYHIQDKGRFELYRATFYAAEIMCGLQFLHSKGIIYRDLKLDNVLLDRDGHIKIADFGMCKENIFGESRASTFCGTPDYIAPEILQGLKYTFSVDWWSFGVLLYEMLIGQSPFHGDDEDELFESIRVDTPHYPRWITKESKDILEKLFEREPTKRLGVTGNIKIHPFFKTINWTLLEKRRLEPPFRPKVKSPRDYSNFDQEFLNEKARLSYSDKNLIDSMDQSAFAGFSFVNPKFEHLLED
T1 sequence (Q04759 whole entry): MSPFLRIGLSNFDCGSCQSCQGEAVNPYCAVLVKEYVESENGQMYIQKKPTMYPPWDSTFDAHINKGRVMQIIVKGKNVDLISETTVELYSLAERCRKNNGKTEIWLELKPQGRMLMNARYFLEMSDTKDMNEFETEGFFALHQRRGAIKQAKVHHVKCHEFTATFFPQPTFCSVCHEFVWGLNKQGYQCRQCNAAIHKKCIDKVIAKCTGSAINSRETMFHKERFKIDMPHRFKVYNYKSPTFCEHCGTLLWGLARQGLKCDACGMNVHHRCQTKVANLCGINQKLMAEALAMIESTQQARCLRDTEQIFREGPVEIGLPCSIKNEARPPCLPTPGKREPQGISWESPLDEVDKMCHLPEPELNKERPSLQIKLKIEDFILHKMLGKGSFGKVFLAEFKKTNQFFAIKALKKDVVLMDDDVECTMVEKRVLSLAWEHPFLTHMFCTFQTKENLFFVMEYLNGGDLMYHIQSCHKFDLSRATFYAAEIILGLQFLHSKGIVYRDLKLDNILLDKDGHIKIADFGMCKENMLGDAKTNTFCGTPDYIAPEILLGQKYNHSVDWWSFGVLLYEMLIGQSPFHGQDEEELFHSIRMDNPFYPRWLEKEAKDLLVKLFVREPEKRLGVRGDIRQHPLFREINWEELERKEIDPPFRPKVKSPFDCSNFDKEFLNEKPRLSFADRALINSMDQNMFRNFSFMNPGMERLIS

Structure (SMILES)	IC50 (His-PKC-theta)	Sel. Level (ratio of IC50 PKC-delta/IC50 PKC-theta) (PKC delta)
CC1(C)[C@H](O)CCC[C@@H]1Nc1nc(NCCC2C(=O)Nc3ccccc32)ncc1C#N (some centres unmarked) [Cmpd 307]	0.1 to 0.8 µM	G (selectivity between 5- and 20-fold (selectivity level G))
CC1(C)[C@@H](O)CCC[C@H]1Nc1nc(NCCC2C(=O)Nc3ccccc32)ncc1C#N (some centres unmarked) [Cmpd 308]	0.1 to 0.8 µM	H (selectivity level of 5-fold or less (selectivity level H))
CC1(C)[C@@H](Nc2nc(NCCC3C(=O)Nc4cc(F)ccc43)ncc2C#N)CCC[C@@H]1O (some centres unmarked) [Cmpd 309]	0.8 to 2 µM	G (selectivity between 5- and 20-fold (selectivity level G))
CC1(C)[C@@H](O)CCC[C@H]1Nc1nc(NCCC2C(=O)Nc3cc(F)ccc32)ncc1C#N (some centres unmarked) [Cmpd 312]	0.1 to 0.8 µM	G (selectivity between 5- and 20-fold (selectivity level G))
CC1(C)[C@@H](Nc2nc(NCCC3C(=O)Nc4ccc(F)cc43)ncc2C#N)CCC[C@@H]1O (some centres unmarked) [Cmpd 313]	0.1 to 0.8 µM	F (selectivity of between 20- and 100-fold (selectivity level F))
CC1(C)[C@H](O)CCC[C@H]1Nc1nc(NCCC2C(=O)Nc3ccc(F)cc32)ncc1C#N (some centres unmarked) [Cmpd 314]	0.1 to 0.8 µM	H (selectivity level of 5-fold or less (selectivity level H))
CC1(C)[C@@H](O)CCC[C@H]1Nc1nc(NCCC2C(=O)Nc3ccc(F)cc32)ncc1C#N (some centres unmarked) [Cmpd 316]	< 0.1 µM	F (selectivity of between 20- and 100-fold (selectivity level F))
CC1(C)[C@@H](C(N)=O)C[C@H]1Nc1nc(NCCC2C(=O)Nc3ccccc32)ncc1C#N (some centres unmarked) [Cmpd 318]	< 0.1 µM	E (selectivity (Sel. Level=ratio of IC50 PKC-delta/IC50 PKC-theta) of >100-fold (selectivity level E))
Cc1cc(CCNc2ncc(C#N)c(N[C@H]3CC[C@@H](C(N)=O)CC3)n2)ncn1 [Cmpd 319]	2 to 10 µM	H (selectivity level of 5-fold or less (selectivity level H))
N#Cc1cnc(NCCc2c[nH]c3cnccc23)nc1N[C@H]1CC[C@@H](C(N)=O)CC1 [Cmpd 320]	0.1 to 0.8 µM	F (selectivity of between 20- and 100-fold (selectivity level F))
Cc1ncccc1CCNc1ncc(C#N)c(N[C@H]2CC[C@@H](C(N)=O)CC2)n1 [Cmpd 322]	0.1 to 0.8 µM	G (selectivity between 5- and 20-fold (selectivity level G))
CCc1cccn1CCNc1ncc(C#N)c(N[C@H]2CC[C@@H](C(N)=O)CC2)n1 [Cmpd 323]	0.1 to 0.8 µM	G (selectivity between 5- and 20-fold (selectivity level G))
COc1cncc(CCNc2ncc(C#N)c(N[C@@H]3CC[C@H](O)C(C)(C)C3)n2)c1 [Cmpd 329]	0.1 to 0.8 µM	G (selectivity between 5- and 20-fold (selectivity level G))
CCOc1cc(CCNc2ncc(C#N)c(N[C@@H]3CC[C@H](O)C(C)(C)C3)n2)ccn1 [Cmpd 330]	0.1 to 0.8 µM	G (selectivity between 5- and 20-fold (selectivity level G))
CC1(C)[C@H](Nc2nc(NCc3cncnc3OCCC(F)(F)F)ncc2C#N)C[C@]1(C)O [Cmpd 334]	< 0.1 µM	E (selectivity (Sel. Level=ratio of IC50 PKC-delta/IC50 PKC-theta) of >100-fold (selectivity level E))

Second part, led by results:

IC50 (His-PKC-theta)	Structure (SMILES)	Sel. Level (ratio of IC50 PKC-delta/IC50 PKC-theta) (PKC delta)
0.8 to 2 µM	CC1(C)[C@H](O)CCC[C@H]1Nc1nc(NCCC2C(=O)Nc3cc(F)ccc32)ncc1C#N (some centres unmarked) [Cmpd 310]	H (selectivity level of 5-fold or less (selectivity level H))
0.1 to 0.8 µM	CC1(C)[C@H](O)CCC[C@@H]1Nc1nc(NCCC2C(=O)Nc3cc(F)ccc32)ncc1C#N (some centres unmarked) [Cmpd 311]	G (selectivity between 5- and 20-fold (selectivity level G))
0.1 to 0.8 µM	CC1(C)[C@H](O)CCC[C@@H]1Nc1nc(NCCC2C(=O)Nc3ccc(F)cc32)ncc1C#N (some centres unmarked) [Cmpd 315]	G (selectivity between 5- and 20-fold (selectivity level G))
< 0.1 µM	CC1(C)[C@@H](c2nc[nH]n2)C[C@H]1Nc1nc(NCCC2C(=O)Nc3ccccc32)ncc1C#N (some centres unmarked) [Cmpd 317]	E (selectivity (Sel. Level=ratio of IC50 PKC-delta/IC50 PKC-theta) of >100-fold (selectivity level E))
2 to 10 µM	Cc1nccnc1CCNc1ncc(C#N)c(N[C@H]2CC[C@@H](C(N)=O)CC2)n1 [Cmpd 321]	H (selectivity level of 5-fold or less (selectivity level H))
0.8 to 2 µM	Cc1cccn1CCNc1ncc(C#N)c(N[C@H]2CC[C@@H](C(N)=O)CC2)n1 [Cmpd 324]	G (selectivity between 5- and 20-fold (selectivity level G))
0.1 to 0.8 µM	CN1C(=O)C(CCNc2ncc(C#N)c(N[C@@H]3C[C@H](C(N)=O)C3(C)C)n2)c2ccccc21 (some centres unmarked) [Cmpd 325]	F (selectivity of between 20- and 100-fold (selectivity level F))
0.1 to 0.8 µM	CC1(C)C[C@H](Nc2nc(NCCc3cc(C(F)(F)F)ccn3)ncc2C#N)CC[C@@H]1O [Cmpd 326]	G (selectivity between 5- and 20-fold (selectivity level G))
2 to 10 µM	COc1cccc(CCNc2ncc(C#N)c(N[C@H]3CC[C@@H](O)CC3)n2)n1 [Cmpd 327]	H (selectivity level of 5-fold or less (selectivity level H))
2 to 10 µM	CCOc1cc(CCNc2ncc(C#N)c(N[C@H]3CC[C@@H](O)CC3)n2)ccn1 [Cmpd 328]	H (selectivity level of 5-fold or less (selectivity level H))
2 to 10 µM	COc1cncc(CCNc2ncc(C#N)c(N[C@H]3CC[C@@H](O)CC3)n2)c1 [Cmpd 331]	H (selectivity level of 5-fold or less (selectivity level H))
< 0.1 µM	CC1(C)[C@H](Nc2nc(NCc3cncnc3OCC(F)F)ncc2C#N)C[C@]1(C)O [Cmpd 332]	E (selectivity (Sel. Level=ratio of IC50 PKC-delta/IC50 PKC-theta) of >100-fold (selectivity level E))
< 0.1 µM	CC(F)(F)COc1ncncc1CNc1ncc(C#N)c(N[C@@H]2C[C@](C)(O)C2(C)C)n1 [Cmpd 333]	E (selectivity (Sel. Level=ratio of IC50 PKC-delta/IC50 PKC-theta) of >100-fold (selectivity level E))

Source: patent US9783505B2, “Substituted diaminopyrimidyl compounds, compositions thereof, and methods of treatment therewith” (Signal Pharmaceuticals, LLC, priority 2013, dated 2017)
